Assay results: patent US6451790B1, “Azadioxacycloalkenes and their use for combating harmful fungi and animal pests” (BASF Aktiengesellschaft, priority 1999, dated 2002)

Key:
Assay type in all cases: in vivo
Botrytis cinerea = test: Action against Botrytis cinerea on bell pepper leaves; settings: 250 ppm, spray 1 day before inoculation, bell pepper seedlings, after 5 days; untreated 80%
From the text: The active compounds, separately or together, were formulated as a 10% emulsion in a mixture of 70% by weight of cyclohexanone, 20% by weight of Nekanil® LN (Lutensol® AP6, wetting agent having emulsifying and dispersant action based on ethoxylated alkylphenols) and 10% by weight of Wettol® EM (nonionic emulsifier based on ethoxylated castor oil) and diluted with water to the desired concentration.
Bell pepper seedlings of the variety “Neusiedler Ideal Elite” were, after 4 to 5 leaves were well developed, sprayed to run-off point with an aqueous active compound formulation which had been made up from a stock solution consisting of 10% of active compound, 63% of cyclohexanone and 27% of emulsifier. The next day, the treated plants were inoculated with a spore suspension of Botrytis cinerea which contained 1.7×10^6 spores/ml in an aqueous 2% strength biomalt solution. The test plants were subsequently placed in a climatized chamber at 22-24° C. and high atmospheric humidity. After 5 days, the extent of the fungal infection on the leaves could be determined visually in %.

Puccinia recondita = test: Curative action against Puccinia recondita on wheat (wheat leaf rust); settings: 16 ppm, curative spray 1 day after inoculation, wheat 'Kanzler', 7 days; untreated 100%
Pyricularia oryzae = settings: 16 ppm, protective spray 1 day before inoculation, rice 'Tai-Nong 67', 6 days; untreated 90%

Row | SMILES | infection (extent of fungal infection on the leaves) (Botrytis cinerea) [%] | infection (extent of rust fungus development on the leaves) (Puccinia recondita) | infection (extent of development of the disease on the leaves) (Pyricularia oryzae) [%]
1 | CO/N=C(/C(=O)OC)c1ccccc1COc1ccn(-c2ccc(Cl)cc2)n1 [Compound A] | 40 | 60% | –
2 | CO/N=C(/C1=NOCCO1)c1ccccc1COc1ccccc1C [Compound B] | – | 90% | 40
3 | CO/N=C(/C1=NOCCO1)c1ccccc1COc1ccn(-c2ccc(Cl)cc2)n1 [Compound I-1, (ortho-[1-{4-chlorophenyl}-pyrazol-3-yl-oxymethyl]-phenyl)(5,6-dihydro-[1,4,2]dioxazin-3-yl)methanone O-methyl oxime] | 3 | no infection | 10
